The values below come from paper PMC8213057, “Targeting ALK2: An Open Science Approach to Developing Therapeutics for the Treatment of Diffuse Intrinsic Pontine Glioma” (Journal of Medicinal Chemistry, 2020).

The target in experiment [1] is LIMK1 (Homo sapiens, UniProt P53667). Nature of the experiment: biochemical. As to conditions: read-out: % enzyme activity, 1 μM; Run 1, Run 2.
Experiment [2] has as its target T1, DYRK4 (Homo sapiens, UniProt Q9NR20).
T1 sequence (Q9NR20 1-520): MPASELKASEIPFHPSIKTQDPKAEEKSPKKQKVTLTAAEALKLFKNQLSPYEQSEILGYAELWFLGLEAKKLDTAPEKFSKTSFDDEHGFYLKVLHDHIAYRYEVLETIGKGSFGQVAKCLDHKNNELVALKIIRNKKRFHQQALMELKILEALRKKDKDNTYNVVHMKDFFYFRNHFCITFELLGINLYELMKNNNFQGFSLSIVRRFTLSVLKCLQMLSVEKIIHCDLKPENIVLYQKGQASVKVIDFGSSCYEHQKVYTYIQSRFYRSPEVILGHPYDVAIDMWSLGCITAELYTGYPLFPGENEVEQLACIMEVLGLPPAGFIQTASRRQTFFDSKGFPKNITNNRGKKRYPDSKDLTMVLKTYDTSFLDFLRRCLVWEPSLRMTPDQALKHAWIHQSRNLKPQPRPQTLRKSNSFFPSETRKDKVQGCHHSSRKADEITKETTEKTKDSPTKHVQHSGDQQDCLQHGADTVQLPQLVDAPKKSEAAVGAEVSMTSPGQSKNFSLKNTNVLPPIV
Nature of the experiment: biochemical. As to conditions: read-out: % enzyme activity, 1 μM; Run 1, Run 2.

The target of experiment [3] is T2, NEK9 (Homo sapiens, UniProt Q8TD19).
T2 sequence (Q8TD19 1-979): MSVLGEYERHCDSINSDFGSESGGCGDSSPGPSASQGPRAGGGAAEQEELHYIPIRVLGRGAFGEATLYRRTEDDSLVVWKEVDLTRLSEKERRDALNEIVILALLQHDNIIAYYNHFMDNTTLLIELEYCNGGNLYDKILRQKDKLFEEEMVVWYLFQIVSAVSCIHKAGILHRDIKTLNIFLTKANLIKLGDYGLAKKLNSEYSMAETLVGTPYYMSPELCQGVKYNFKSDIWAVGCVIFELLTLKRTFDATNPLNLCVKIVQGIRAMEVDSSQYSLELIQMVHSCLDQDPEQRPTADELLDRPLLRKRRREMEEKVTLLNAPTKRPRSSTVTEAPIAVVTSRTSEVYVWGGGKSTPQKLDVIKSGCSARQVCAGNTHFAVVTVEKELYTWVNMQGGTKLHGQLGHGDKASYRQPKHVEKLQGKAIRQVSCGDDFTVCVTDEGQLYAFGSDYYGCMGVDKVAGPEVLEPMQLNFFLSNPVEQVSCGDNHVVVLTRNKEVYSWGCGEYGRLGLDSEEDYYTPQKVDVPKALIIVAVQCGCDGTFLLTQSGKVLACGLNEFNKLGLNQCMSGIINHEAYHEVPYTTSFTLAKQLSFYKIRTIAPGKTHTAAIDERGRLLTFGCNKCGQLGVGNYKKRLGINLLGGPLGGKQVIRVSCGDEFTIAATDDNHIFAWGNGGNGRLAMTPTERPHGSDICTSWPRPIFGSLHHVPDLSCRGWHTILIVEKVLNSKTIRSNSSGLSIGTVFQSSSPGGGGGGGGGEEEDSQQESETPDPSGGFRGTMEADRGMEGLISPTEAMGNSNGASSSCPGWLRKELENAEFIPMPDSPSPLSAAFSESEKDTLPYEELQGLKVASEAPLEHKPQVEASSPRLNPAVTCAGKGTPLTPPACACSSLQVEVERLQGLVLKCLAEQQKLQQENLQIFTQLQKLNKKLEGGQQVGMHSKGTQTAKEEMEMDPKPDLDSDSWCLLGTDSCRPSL
Nature of the experiment: biochemical. The settings on record: read-out: % enzyme activity, 1 μM; Run 1, Run 2.

The target of experiment [4] is T3, PHKg2 (Homo sapiens, UniProt P15735).
T3 sequence (P15735 1-406): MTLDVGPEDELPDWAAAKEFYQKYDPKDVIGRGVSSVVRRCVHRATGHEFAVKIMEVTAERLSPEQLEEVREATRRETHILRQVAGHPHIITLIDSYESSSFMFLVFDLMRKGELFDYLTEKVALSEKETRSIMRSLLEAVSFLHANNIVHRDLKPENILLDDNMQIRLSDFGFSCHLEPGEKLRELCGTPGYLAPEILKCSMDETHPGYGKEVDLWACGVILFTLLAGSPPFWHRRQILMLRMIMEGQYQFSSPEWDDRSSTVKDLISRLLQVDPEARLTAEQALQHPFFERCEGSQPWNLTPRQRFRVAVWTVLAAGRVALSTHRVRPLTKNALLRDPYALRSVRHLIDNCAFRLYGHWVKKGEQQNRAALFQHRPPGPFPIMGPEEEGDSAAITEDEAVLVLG
As to conditions: 1 μM; Run 1, Run 2.

Experiment [5] concerns the target T4, MEK3 (Homo sapiens, UniProt P46734).
T4 sequence (P46734 1-347): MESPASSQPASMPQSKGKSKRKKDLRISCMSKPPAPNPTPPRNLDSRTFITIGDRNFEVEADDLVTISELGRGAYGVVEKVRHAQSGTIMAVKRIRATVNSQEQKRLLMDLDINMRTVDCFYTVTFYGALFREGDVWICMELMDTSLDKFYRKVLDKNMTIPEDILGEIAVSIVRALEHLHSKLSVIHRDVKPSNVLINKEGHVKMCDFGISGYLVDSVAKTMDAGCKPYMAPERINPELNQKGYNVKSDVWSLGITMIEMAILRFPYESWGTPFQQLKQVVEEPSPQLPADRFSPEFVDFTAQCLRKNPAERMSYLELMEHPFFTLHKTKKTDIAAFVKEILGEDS
Nature of the experiment: biochemical. The settings on record: read-out: % enzyme activity, 1 μM; Run 1, Run 2.

Experiment [6] concerns TAOK1.
In experiment [7] the target is T5, PBK/TOPK (Homo sapiens, UniProt Q96KB5).
T5 sequence (Q96KB5 1-322): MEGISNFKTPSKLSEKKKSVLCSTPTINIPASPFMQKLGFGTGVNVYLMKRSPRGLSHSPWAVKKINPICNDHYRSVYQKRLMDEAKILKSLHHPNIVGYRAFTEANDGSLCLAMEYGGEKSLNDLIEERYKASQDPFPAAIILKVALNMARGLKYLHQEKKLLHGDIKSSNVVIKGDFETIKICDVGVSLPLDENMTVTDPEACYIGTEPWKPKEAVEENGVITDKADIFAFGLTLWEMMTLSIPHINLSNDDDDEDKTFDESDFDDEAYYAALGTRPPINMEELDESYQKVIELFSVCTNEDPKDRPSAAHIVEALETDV
As to conditions: 1 μM; Run 1, Run 2.

Values joined by “and” are separate entries in the source; they are usually repeats but may differ in a detail not shown here. Identical values can stand only once.

LIMK1, sequence (P53667 whole entry): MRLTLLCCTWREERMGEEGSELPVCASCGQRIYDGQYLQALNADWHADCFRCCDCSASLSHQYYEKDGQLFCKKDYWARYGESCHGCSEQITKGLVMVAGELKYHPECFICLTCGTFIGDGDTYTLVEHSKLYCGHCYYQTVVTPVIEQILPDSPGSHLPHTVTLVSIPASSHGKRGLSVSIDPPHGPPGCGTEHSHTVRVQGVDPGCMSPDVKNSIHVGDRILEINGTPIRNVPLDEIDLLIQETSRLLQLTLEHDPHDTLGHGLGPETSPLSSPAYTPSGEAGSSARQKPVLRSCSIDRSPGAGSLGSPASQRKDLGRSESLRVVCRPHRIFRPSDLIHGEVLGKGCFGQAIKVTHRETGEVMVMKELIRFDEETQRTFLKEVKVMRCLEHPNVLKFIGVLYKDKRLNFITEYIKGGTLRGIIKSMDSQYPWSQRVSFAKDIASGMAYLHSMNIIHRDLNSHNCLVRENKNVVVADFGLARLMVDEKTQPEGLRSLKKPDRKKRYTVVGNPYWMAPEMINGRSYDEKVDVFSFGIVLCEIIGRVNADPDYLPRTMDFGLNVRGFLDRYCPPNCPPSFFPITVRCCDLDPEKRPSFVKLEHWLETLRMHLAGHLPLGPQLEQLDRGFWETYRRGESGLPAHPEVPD

As for `COc1cc(-c2cncc(-c3ccc(N4C[C@@H](C)N(C)[C@@H](C)C4)cc3)c2C)cc(F)c1C(N)=O` [Compound 26c, 2-Fluoro-6-methoxy-4-(4-methyl-5-(4-((3R,5S)-3,4,5-trimethylpiperazin-1-yl)phenyl)pyridin-3-yl)benzamide], the remaining activity at 1 µM in experiment [1] is 74.2%; in experiment [2], 101%; in experiment [3] it was 91.6%; in experiment [5], 101%. For the same compound, the “% enzyme activity” value in experiment [4] was 96.43%; in experiment [7] it was 102.56%. Besides, in experiment [6], the % enzyme activity at 1 μM was 62.2% and 60.6%.

As to `COc1cc(-c2cncc(-c3ccc(N4CCN(C)CC4)cc3)c2C)cc(F)c1C(N)=O` [Compound 26a, 2-Fluoro-6-methoxy-4-(4-methyl-5-(4-(4-methylpiperazin-1-yl)phenyl)pyridin-3-yl)benzamide], the remaining activity at 1 µM stood at 65.1% in experiment [1], 103% in experiment [2], 91.2% in experiment [3] and 102% in experiment [5]. Also, the results for the “% enzyme activity” value in experiment [4] and in experiment [7] were 93.32% and 89.81%, respectively. Further, the % enzyme activity at 1 μM in experiment [6] is 60.3% and 60.2%.
